Experiments:
[1] = system: differentiated Caco-2/PD7 cells; assay: Cell viability of differentiated (enterocyte-like) Caco-2/PD7 cells; format: cell-based, human; conditions: for Cell viability of differentiated Caco-2 cells at 2 × IC50: differentiated Caco-2/PD7, concentration = 2 × IC50, 72 h
Procedure: For cell viability studies of differentiated (enterocyte-like) cells, Caco-2/PD7 cells were seeded on 96-well plates at a density of 4 × 10^3 cells/well and incubated for approximately 10–15 days, changing the culture medium every 3 days, up to reaching confluence—the moment in which the cells were treated with the complexes at concentrations equal to their mean IC50 and 2 × IC50 values.
It is well known that the Caco-2 cell line undergoes spontaneous differentiation into enterocytic-like cells when it reaches confluency. As a result, these cells become polarised, expressing apical and basolateral surfaces with established tight junctions. This allowed for the evaluation of the cytotoxic impact of the complexes on differentiated cells (acting as noncarcinogenic) and a comparison with the viability of undifferentiated cells. Thus, the toxicity of the two heteronuclear compounds has been studied by cell viability experiments by treatment of Caco-2/PD7 cells after differentiation with complexes 1 and 2 at the corresponding concentrations equivalent to IC50 and 2 × IC50 values for 72 h. The results expressed as the % of cell viability observed after treatment with the complexes (or 100% for non-treated control cells) are summarised in Figure S16 (Supplementary Materials). […] However, the cell viability is around 90% even when the cells are treated with double the IC50 concentration.

[2] = molecular target: T1, bovine serum albumin (BSA) (Bos taurus, UniProt P02769); assay: BSA fluorescence quenching (Stern-Volmer); format: binding; conditions: [BSA] = 50 μM, complex 0-30 μM, 298 K; for Stern-Volmer quenching constant KSV: λexc 295 nm
T1 construct: purchased Sigma Aldrich (St. Louis, MO, USA)
T1 sequence (P02769 25-607): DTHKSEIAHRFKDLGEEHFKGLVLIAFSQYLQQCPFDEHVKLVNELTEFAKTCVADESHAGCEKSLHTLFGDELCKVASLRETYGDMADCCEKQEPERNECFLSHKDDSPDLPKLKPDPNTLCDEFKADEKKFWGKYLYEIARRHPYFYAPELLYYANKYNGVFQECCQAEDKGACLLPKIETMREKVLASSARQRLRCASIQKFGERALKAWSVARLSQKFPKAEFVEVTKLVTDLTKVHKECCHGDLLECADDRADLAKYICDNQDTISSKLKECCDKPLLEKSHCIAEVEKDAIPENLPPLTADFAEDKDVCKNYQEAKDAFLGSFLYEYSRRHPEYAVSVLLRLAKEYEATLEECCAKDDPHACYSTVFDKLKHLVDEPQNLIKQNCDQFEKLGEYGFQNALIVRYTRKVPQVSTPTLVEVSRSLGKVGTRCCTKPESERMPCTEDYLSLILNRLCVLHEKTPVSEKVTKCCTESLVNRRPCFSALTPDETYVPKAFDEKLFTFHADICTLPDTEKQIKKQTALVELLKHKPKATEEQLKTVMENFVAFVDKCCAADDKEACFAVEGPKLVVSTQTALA
Procedure: Interaction with bovine serum albumin. BSA was purchased from Sigma Aldrich (St. Louis, MO, USA). A 2 mM stock solution of BSA was prepared by dissolving the commercial powder in PBS at pH 7.4. Afterwards, the real concentration was confirmed using UV-vis spectroscopy (ε280 nm = 43,824 M^−1cm^−1). The heteronuclear complexes were dissolved in DMSO to achieve 6 mM stock solutions, and six aliquots of 2.5 μL were added to a 50 μM solution of BSA in PBS placed in a quartz cuvette of 1 cm optical path. The final concentrations of the complexes in the cuvette were 0, 5, 10, 15, 20, 25, and 30 μM. The fluorescence spectra were recorded on a Jobin-Yvon-Horiba fluorolog FL-3-11 spectrometer. The samples were excited at 295 nm and the emission spectra were recorded in a range from 310 to 450 nm.
The samples were measured 4 min after every addition of the aliquots of the complexes. The fluorescence intensities of the PBS and the complexes were irrelevant under the described conditions. The data were analysed using the Stern–Volmer equation F0/F = 1 + KSV [gold complex] = 1 + Kqτ0[complex] to obtain the Stern–Volmer quenching constant (KSV) and the quenching rate constant (Kq). The binding constant (Kb) was quantified by using the Stern–Volmer equation: log {(F0 − F)/F} = log Kb + n log [complex].
We have carried out fluorescence and UV-Vis spectroscopic experiments to study the affinity of [Cu{Au(Spy)(PTA)}2]PF6 (1) and [Zn{Au(PTA)(Spy)}2](NO3)2 (2) for albumin. These experiments are based on the quenching of the intrinsic tryptophan fluorescence emission undergone by BSA in the presence of increasing concentrations of the trinuclear complexes, which act as quenchers. The intrinsic fluorescence of BSA is susceptible to alterations in its local environment, and the binding or simple electrostatic interaction of molecules can result in modifications to its emission spectrum. Fluorescence quenching experiments have been carried out, observing the emission of tryptophan at 341 nm upon excitation at 295 nm and increasing concentrations of compounds 2 and 3 with BSA. […] The addition of increasing amounts of the complexes to a BSA solution results in a significant reduction in fluorescence intensity without any shift in the emission maximum. The fluorescence data have been analysed using the Stern–Volmer equation so that the binding of the complexes to BSA and the consequent quenching of the emission can be quantified (Table 3). The corresponding plot F0/F versus [complex] (F and F0 are the corresponding intensities in the presence and the absence of the quencher agent) gives a linear plot in both cases (Figure 1B), characteristic of the presence of a single mechanism of quenching, either static or dynamic. […]

[3] = system: Caco-2/PD7 cells; assay: Annexin V/propidium iodide apoptosis assay, Caco-2/PD7; format: cell-based, human; conditions: Caco-2/PD7, IC50 concentration, 72 h; control 35.8%
Procedure: Study of cell death. After the appropriate incubation, cells were collected and stained with annexin V-FTIC, according to the manufacturer’s instructions. A negative control was prepared, containing unreacted cells to define the basal level of apoptotic and necrotic or dead cells. After incubation, the cells were transferred to flow-cytometry tubes and washed twice with temperate phosphate-buffered saline (PBS), suspended in 100 μL annexin V binding buffer (10 mM Hepes/NaOH, pH 7.4, 140 mM NaCl, 2.5 mM CaCl2), then 5 μL of annexin V-FITC, and 5 μL of PI was added to each 100 μL of cell suspension. After incubation for 15 min at room temperature in the dark, 400 μL of 1× annexin binding buffer was added and analysed by flow cytometry within one hour. The signal intensity was measured using a FACSARIA BD and analysed using FASCDIVA BD.
This inhibition of apoptosis produces a fast growth and proliferation of cancerous cells. The population of early and late apoptotic cells increased to 35% after treatment with complex 1 in comparison with the vehicle-treated cells (12%). […] Additionally, the effect observed after treating the cells with a dosage equal to the IC50 concentration is time-dependent. […]

[4] = system: pIRES2-EGFP (5308 pb) plasmid DNA; assay: Gel electrophoretic mobility of plasmid DNA; format: binding; conditions: metal-to-base pair ratios 0.5, 1, 2; 0.8% agarose gel
Procedure: Adducts with pIRES2-EGFP (5308 pb) plasmid DNA (Catalog #6029-1) were prepared by adding the required volume of a freshly prepared solution of metal complexes in MilliQ water. The concentration of pIRES2-EGFP in the reaction mixture was 117 ng/µL, and the complexes’ concentration was varied to give different metal-to-base pair stoichiometries (0.5, 1 and 2). The mobility of the metal complex-treated pIRES2-EGFP samples was analysed by gel electrophoresis on a 0.8% (w/v) agarose gel (Boehringer-Mannheim, Mannheim, Germany) at […] at 25 °C in Tris-acetate/EDTA buffer. The gel was stained for 30 min in […] (w/v) ethidium bromide and the bands were visualised with a UVP gel scanner.
In addition, the interaction of both complexes with DNA was also studied by their ability to modify the electrophoretic mobility of the pIRES2-EGFP (5308 pb) plasmid DNA and compared to cisplatin (Figure 7).

| Substance | Cell viability of differentiated Caco-2 cells at 2 × IC50 [1] | Cell viability of differentiated Caco-2 cells at IC50 ([1]; differentiated Caco-2/PD7, concentration = IC50, 72 h) | number of binding sites n [2] | Stern-Volmer quenching constant KSV [2] | Apoptotic cells (early + late apoptosis) [3] | Effect on electrophoretic mobility of plasmid DNA [4] |
| --- | --- | --- | --- | --- | --- | --- |
| [Zn{Au(PTA)(Spy)}2](NO3)2 [compound 2] | 87.66 ± 2.85% | 92.14 ± 4.22% | 0.95 | 1760 M⁻¹ |  |  |
| [Cu{Au(Spy)(PTA)}2]PF6 [compound 1] | around 90% |  | 1.11 | 5730 M⁻¹ | 62.4% | significant effect on the mobility |

From publication PMC11351612, “Heteronuclear Complexes with Promising Anticancer Activity against Colon Cancer” (Biomedicines, 2024)
